Test results reported in ChEMBL document CHEMBL2203125, “A Potent and Selective Quinoxalinone-Based STK33 Inhibitor Does Not Show Synthetic Lethality in KRAS-Dependent Cells” (ACS Med Chem Lett, 2012).
Values after ≈ are worked out from the molar mass of the structure shown. Active and inactive are the calls of the source. The rule behind the calls is not given here.

Columns and labels:
[1] = molecular target: T1, Serine/threonine-protein kinase 33 (Homo sapiens, UniProt Q9BYT3); test: Inhibition of N-terminal 6His-tagged full length human recombinant STK33 using myelin basic protein as substrate incubated for 15 mins before initiation of kinase reaction measured after 1 hr by ADP-glo assay
Target sequence in this assay (Q9BYT3 whole entry, the tested form may be a part): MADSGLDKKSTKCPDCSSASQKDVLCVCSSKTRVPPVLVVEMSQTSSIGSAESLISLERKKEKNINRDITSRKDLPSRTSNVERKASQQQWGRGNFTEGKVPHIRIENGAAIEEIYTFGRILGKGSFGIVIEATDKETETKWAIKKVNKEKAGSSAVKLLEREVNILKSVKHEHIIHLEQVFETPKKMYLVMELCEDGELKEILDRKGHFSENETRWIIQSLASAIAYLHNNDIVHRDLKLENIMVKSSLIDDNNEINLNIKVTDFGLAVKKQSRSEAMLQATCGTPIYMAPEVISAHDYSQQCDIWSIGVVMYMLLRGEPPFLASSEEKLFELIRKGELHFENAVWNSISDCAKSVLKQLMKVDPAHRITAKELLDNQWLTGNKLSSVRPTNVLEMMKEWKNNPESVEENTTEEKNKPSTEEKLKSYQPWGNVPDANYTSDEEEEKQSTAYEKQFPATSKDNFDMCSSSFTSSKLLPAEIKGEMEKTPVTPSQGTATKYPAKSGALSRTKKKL

[2] = Inhibition of His-tagged recombinant catalytic fragment of PKA assessed as phosphorylation of fluorescent-labeled peptide 21substrate by caliper capillary electrophoresis
EOL1 = test: Cytotoxicity against human EOL-1 cells expressing wild type KRAS assessed as effect on cell viability up to 10 uM after 72 hrs by CellTiter-Glo luminescent assay; assay type: functional, cell-based
PL21 = test: Cytotoxicity against human PL21 cells expressing wild type KRAS assessed as effect on cell viability up to 10 uM after 72 hrs by CellTiter-Glo luminescent assay; assay type: functional, cell-based
EJM = test: Cytotoxicity against human EJM cells expressing wild type KRAS assessed as effect on cell viability up to 10 uM after 72 hrs by CellTiter-Glo luminescent assay; assay type: functional, cell-based
Homo sapiens [3] = organism: Homo sapiens; test: Cytotoxicity against human KARPAS620 cells expressing KRAS mutant gene assessed as effect on cell viability up to 10 uM after 72 hrs by CellTiter-Glo luminescent assay; assay type: functional, cell-based
[4] = Metabolic stability in human plasma at 5 uM after 5 hrs by UPLC-MS analysis; assay type: ADME, cell-free; conditions: read-out: Stability
NOMO-1 = test: Cytotoxicity against human NOMO1 cells expressing KRAS mutant gene assessed as effect on cell viability up to 10 uM after 72 hrs by CellTiter-Glo luminescent assay; assay type: functional, cell-based
Jurkat = test: Cytotoxicity against human Jurkat cells expressing wild type KRAS assessed as effect on cell viability up to 10 uM after 72 hrs by CellTiter-Glo luminescent assay; assay type: functional, cell-based
U-937 = test: Cytotoxicity against human U937 cells expressing wild type KRAS assessed as effect on cell viability up to 10 uM after 72 hrs by CellTiter-Glo luminescent assay; assay type: functional, cell-based
[5] = Metabolic stability in mouse plasma at 5 uM after 5 hrs by UPLC-MS analysis; assay type: ADME, cell-free; conditions: read-out: Stability
Plasma [6] = test: Plasma protein binding in human at 5 uM after 5 hrs by equilibrium dialysis method; assay type: ADME, cell-free
KOPN-8 = test: Cytotoxicity against human KOPN8 cells expressing KRAS mutant gene assessed as effect on cell viability up to 10 uM after 72 hrs by CellTiter-Glo luminescent assay; assay type: functional, cell-based
THP-1 = test: Cytotoxicity against human THP1 cells expressing wild type KRAS assessed as effect on cell viability up to 10 uM after 72 hrs by CellTiter-Glo luminescent assay; assay type: functional, cell-based
SKM-1 = test: Cytotoxicity against human SKM1 cells expressing KRAS mutant gene assessed as effect on cell viability up to 10 uM after 72 hrs by CellTiter-Glo luminescent assay; assay type: functional, cell-based
NB-4 = test: Cytotoxicity against human NB4 cells expressing KRAS mutant gene assessed as effect on cell viability up to 10 uM after 72 hrs by CellTiter-Glo luminescent assay; assay type: functional, cell-based
MOLM16 = test: Cytotoxicity against human MOLM16 cells expressing wild type KRAS assessed as effect on cell viability up to 10 uM after 72 hrs by CellTiter-Glo luminescent assay; assay type: functional, cell-based
MM1.S = test: Cytotoxicity against human MM1S cells expressing wild type KRAS assessed as effect on cell viability up to 10 uM after 72 hrs by CellTiter-Glo luminescent assay; assay type: functional, cell-based
MDA-MB-231 = test: Cytotoxicity against human MDA-MB-231 cells expressing KRAS mutant gene assessed as effect on cell viability up to 10 uM after 72 hrs by CellTiter-Glo luminescent assay; assay type: functional, cell-based
[7] = molecular target: Vascular endothelial growth factor receptor 2 (Homo sapiens) (UniProt P35968); conditions: 1 uM
Vascular endothelial growth factor receptor 2 (Homo sapiens), sequence (P35968 whole entry): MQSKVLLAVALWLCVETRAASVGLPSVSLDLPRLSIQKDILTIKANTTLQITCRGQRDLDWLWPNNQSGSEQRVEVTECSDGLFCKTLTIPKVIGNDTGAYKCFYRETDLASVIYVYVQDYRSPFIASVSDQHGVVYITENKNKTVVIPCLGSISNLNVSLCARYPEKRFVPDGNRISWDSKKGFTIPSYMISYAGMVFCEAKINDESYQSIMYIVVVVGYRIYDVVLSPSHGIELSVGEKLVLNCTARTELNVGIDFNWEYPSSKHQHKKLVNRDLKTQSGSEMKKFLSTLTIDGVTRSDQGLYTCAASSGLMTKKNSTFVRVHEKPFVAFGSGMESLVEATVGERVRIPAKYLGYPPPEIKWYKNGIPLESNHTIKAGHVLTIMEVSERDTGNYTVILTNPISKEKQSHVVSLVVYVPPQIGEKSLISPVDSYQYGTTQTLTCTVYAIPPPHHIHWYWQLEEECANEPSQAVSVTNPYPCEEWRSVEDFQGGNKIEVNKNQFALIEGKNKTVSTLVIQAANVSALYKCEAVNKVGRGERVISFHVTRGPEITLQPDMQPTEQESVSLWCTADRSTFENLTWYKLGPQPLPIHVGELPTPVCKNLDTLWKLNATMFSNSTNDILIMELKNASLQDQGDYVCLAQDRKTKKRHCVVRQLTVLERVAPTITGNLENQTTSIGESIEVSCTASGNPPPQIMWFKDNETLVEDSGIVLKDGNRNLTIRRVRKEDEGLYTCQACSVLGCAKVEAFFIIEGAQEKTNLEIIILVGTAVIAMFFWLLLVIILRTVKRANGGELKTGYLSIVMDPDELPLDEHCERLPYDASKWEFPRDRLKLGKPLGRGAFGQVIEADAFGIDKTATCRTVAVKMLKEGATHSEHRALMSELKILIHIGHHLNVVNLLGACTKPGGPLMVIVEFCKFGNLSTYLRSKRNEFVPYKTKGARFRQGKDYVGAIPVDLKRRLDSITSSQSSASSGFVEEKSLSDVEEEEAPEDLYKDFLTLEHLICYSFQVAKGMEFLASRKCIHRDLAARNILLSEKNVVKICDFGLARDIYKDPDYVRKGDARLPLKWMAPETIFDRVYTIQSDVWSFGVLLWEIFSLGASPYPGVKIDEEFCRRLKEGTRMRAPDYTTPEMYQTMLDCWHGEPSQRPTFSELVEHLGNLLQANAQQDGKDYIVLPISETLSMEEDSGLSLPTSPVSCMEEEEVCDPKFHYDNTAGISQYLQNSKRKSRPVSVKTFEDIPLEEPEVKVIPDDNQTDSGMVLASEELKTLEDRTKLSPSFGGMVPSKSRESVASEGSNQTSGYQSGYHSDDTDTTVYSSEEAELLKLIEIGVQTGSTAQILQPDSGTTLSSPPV
Description: Inhibition of human KDR at 1 uM

GDM-1 = test: Cytotoxicity against human GDM-1 cells expressing wild type KRAS assessed as effect on cell viability up to 10 uM after 72 hrs by CellTiter-Glo luminescent assay; assay type: functional, cell-based
RPMI-8226 = test: Cytotoxicity against human RPMI8226 cells expressing KRAS mutant gene assessed as effect on cell viability up to 10 uM after 72 hrs by CellTiter-Glo luminescent assay; assay type: functional, cell-based
Plasma [8] = test: Plasma protein binding in mouse at 5 uM after 5 hrs by equilibrium dialysis method; assay type: ADME, cell-free
[9] = molecular target: Receptor-type tyrosine-protein kinase FLT3 (Homo sapiens) (UniProt P36888); conditions: 1 uM
Receptor-type tyrosine-protein kinase FLT3 (Homo sapiens), sequence (P36888 whole entry): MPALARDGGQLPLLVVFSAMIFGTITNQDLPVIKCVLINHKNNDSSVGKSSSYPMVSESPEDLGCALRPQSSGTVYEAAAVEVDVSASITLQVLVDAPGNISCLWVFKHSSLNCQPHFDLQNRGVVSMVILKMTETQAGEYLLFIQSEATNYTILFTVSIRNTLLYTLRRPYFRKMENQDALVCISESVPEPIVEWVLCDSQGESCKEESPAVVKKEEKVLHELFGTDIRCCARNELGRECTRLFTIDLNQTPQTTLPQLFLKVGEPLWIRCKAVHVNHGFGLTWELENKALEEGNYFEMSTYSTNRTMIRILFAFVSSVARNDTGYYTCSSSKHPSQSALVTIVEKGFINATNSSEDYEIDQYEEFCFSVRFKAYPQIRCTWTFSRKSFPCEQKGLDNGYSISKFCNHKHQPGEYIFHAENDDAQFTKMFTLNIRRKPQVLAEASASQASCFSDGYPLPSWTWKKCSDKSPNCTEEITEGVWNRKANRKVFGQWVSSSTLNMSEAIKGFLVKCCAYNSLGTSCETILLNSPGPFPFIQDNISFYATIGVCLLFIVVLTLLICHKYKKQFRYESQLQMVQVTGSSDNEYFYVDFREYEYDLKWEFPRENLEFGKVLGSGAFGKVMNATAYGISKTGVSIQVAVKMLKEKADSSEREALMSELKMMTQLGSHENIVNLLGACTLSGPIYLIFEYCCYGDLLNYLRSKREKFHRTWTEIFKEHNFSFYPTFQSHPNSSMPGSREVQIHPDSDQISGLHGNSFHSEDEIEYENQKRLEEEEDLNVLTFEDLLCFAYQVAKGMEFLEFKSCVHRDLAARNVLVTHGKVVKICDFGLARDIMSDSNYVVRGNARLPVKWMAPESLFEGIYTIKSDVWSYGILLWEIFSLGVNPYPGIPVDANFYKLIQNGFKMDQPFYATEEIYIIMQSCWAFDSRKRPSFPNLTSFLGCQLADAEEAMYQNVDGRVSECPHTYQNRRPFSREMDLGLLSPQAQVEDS
Description: Inhibition of human FLT3 at 1 uM

OCI-AML-3 = test: Cytotoxicity against human OCI-AML3 cells expressing wild type KRAS assessed as effect on cell viability up to 10 uM after 72 hrs by CellTiter-Glo luminescent assay; assay type: functional, cell-based
[10] = molecular target: T1, Serine/threonine-protein kinase 33; conditions: 1 uM
Target sequence in this assay (Q9BYT3 whole entry, looked up, the tested form may be a part): as the sequence (Q9BYT3 whole entry, the tested form may be a part) above
Description: Inhibition of N-terminal 6His-tagged full length human recombinant STK33 using myelin basic protein as substrate at 1 uM incubated for 15 mins before initiation of kinase reaction measured after 1 hr by ADP-glo assay

[11] = Solubility of the compound in PBS at pH 7.4; assay type: physicochemical; conditions: buffer
Homo sapiens [12] = organism: Homo sapiens; test: Selectivity ratio of IC50 for His-tagged recombinant catalytic fragment of PKA to IC50 for N-terminal 6His-tagged full length human recombinant STK33
Homo sapiens [13] = organism: Homo sapiens; test: Selectivity ratio of IC50 for human Aurora-B to IC50 for N-terminal 6His-tagged full length human recombinant STK33
Homo sapiens [14] = organism: Homo sapiens; test: Selectivity ratio of IC50 for N-terminal 6His-tagged full length human recombinant STK33 to IC50 for human Aurora-B
[15] = Chemical stability of the compound in DMSO solution by LC-MS analysis; assay type: physicochemical

## O=C(Nc1cc(F)ccc1-c1nc2ccccc2[nH]c1=O)c1cccs1
[1]
  IC50: 78 nM
[2]
  IC50: > 10000 nM

## CC(C)c1ccc(NC(=O)c2cccs2)c(-c2nc3ccccc3[nH]c2=O)c1
EOL1
  Activity: inactive
PL21
  Activity: inactive
EJM
  Activity: inactive
Homo sapiens [3]
  Activity: inactive
[4]
  remaining at 5 h, 5 µM: 80.3%
NOMO-1
  Activity: inactive
Jurkat
  Activity: inactive
[1]
  IC50: 14 nM
U-937
  Activity: inactive
[5]
  remaining at 5 h, 5 µM: 10%
Plasma [6]
  PPB: 99.6%
KOPN-8
  Activity: inactive
THP-1
  Activity: inactive
SKM-1
  Activity: inactive
NB-4
  Activity: inactive
MOLM16
  Activity: inactive
MM1.S
  Activity: inactive
MDA-MB-231
  Activity: inactive
[7]
  inhibition: > 25%
[2]
  IC50: > 10000 nM
GDM-1
  Activity: inactive
RPMI-8226
  Activity: inactive
Plasma [8]
  PPB: 99.9%
[9]
  inhibition: > 25%
OCI-AML-3
  Activity: inactive
[10]
  inhibition: > 25%
[11]
  solubility: 5.8 µM (≈ 2.26 µg/mL)

## O=c1[nH]c2ccccc2nc1-c1ccccc1NCc1ccccn1
[1]
  IC50: 1600 nM

## O=c1[nH]c2ccccc2nc1-c1ccccc1NCc1cccs1
[1]
  IC50: > 10000 nM
[2]
  IC50: > 10000 nM

## CC(=O)NC[C@@H]1C[C@@H](NS(=O)(=O)c2cccc3cncc(C)c23)CN1
Homo sapiens [12]
  Ratio IC50: 5
Homo sapiens [13]
  Ratio IC50: 5

## O=C(Nc1cc(Cl)ccc1-c1nc2ccccc2[nH]c1=O)c1cccs1
[1]
  IC50: 270 nM
[2]
  IC50: > 10000 nM

## COc1ccc(-n2ncc3ccc(Nc4ccc(N5CCN(C)CC5)c(OC)c4)nc32)cc1
Homo sapiens [13]
  Ratio IC50: 0.4
Homo sapiens [14]
  Ratio IC50: 2

## O=C(Nc1ccccc1-c1nc2ccccc2[nH]c1=O)c1ccccc1
[1]
  IC50: 170 nM

## O=c1[nH]c2ccccc2nc1-c1ccccc1NCc1ccc(F)cc1
[1]
  IC50: > 10000 nM

## Cc1cc2nc(-c3ccccc3NC(=O)c3cccs3)c(=O)[nH]c2cc1C
[1]
  IC50: 1600 nM
[2]
  IC50: > 10000 nM

## O=C(Nc1ccc(F)cc1-c1nc2ccccc2[nH]c1=O)c1cccs1
[1]
  IC50: 410 nM
[2]
  IC50: > 10000 nM

## O=C(Nc1ccc(Cl)cc1-c1nc2ccccc2[nH]c1=O)c1cccs1
[1]
  IC50: 160 nM
[2]
  IC50: > 10000 nM

## O=C(Nc1ccccc1-c1nc2ccccc2[nH]c1=O)C1CCCCC1
[1]
  IC50: > 10000 nM
[2]
  IC50: > 10000 nM

## O=c1[nH]c2ccccc2nc1-c1ccccc1NCC1CC1
[1]
  IC50: > 10000 nM

## O=c1[nH]c2ccccc2nc1-c1ccccc1NS(=O)(=O)c1ccccc1
[1]
  IC50: 7300 nM

## O=C(Nc1ccccc1-c1nc2ccccc2[nH]c1=O)c1ccc(Cl)cc1
[1]
  IC50: 300 nM

## O=C(Nc1ccccc1-c1nc2ccccc2[nH]c1=O)c1nccs1
[1]
  IC50: 530 nM

## O=c1[nH]c2ccccc2nc1-c1ccccc1NS(=O)(=O)c1cccs1
[1]
  IC50: > 10000 nM

## O=C(Nc1ccccc1-c1nc2ccccc2[nH]c1=O)c1ccccn1
[1]
  IC50: 76 nM
[15]
  Stability: Unstable
[2]
  IC50: > 10000 nM

## O=C(Nc1ccc(OC(F)(F)F)cc1-c1nc2ccccc2[nH]c1=O)c1cccs1
[1]
  IC50: 110 nM
[2]
  IC50: > 10000 nM

## O=C(Nc1ccccc1-c1nc2ccccc2[nH]c1=O)c1cccnc1
[1]
  IC50: 580 nM
[15]
  Stability: Stable
[2]
  IC50: > 10000 nM

## COc1ccc(NC(=O)c2cccs2)c(-c2nc3ccccc3[nH]c2=O)c1
[1]
  IC50: 250 nM
Homo sapiens [12]
  Ratio IC50: 30
[2]
  IC50: 7500 nM

## O=C(Nc1ccccc1-c1nc2cc(Cl)c(Cl)cc2[nH]c1=O)c1cccs1
[1]
  IC50: 4000 nM
Homo sapiens [12]
  Ratio IC50: 1.1
[2]
  IC50: 4800 nM

## O=c1[nH]c2ccccc2nc1-c1ccccc1NCc1ccccc1
[1]
  IC50: > 10000 nM
[2]
  IC50: > 10000 nM

## O=C(Nc1ccccc1-c1nc2ccccc2[nH]c1=O)c1ccc(F)cc1
[1]
  IC50: 150 nM
[15]
  Stability: Unstable
[2]
  IC50: > 10000 nM

## COc1ccc(C(=O)Nc2ccccc2-c2nc3ccccc3[nH]c2=O)cc1
[1]
  IC50: 980 nM
[2]
  IC50: > 10000 nM

## O=C(Nc1ccccc1-c1nc2ccccc2[nH]c1=O)c1ccc(Cl)s1
[1]
  IC50: 380 nM

## O=C(Nc1ccccc1-c1nc2cc(F)c(F)cc2[nH]c1=O)c1cccs1
[1]
  IC50: 1600 nM
[2]
  IC50: > 10000 nM

## O=C(Nc1ccccc1-c1nc2ccccc2nc1O)c1cccs1
[1]
  IC50: 280 nM
[2]
  IC50: > 10000 nM
